From US8247556B2, “Method for preparing 6-substituted-7-aza-indoles” (Amgen Inc., priority 2005, dated 2012)

Tested on: VEGF-stimulated HUVEC proliferation (Human Umbilical Vein Endothelial cells)
Test: HUVEC Proliferation Assay
Format: cell-based
Settings: VEGF 50 ng/mL, 72 h, CyQuant fluorescent dye, read-out: inhibited VEGF-stimulated HUVEC proliferation at a level
Protocol: Human Umbilical Vein Endothelial cells are purchased from Clonetics, Inc., as cryopreserved cells harvested from a pool of donors. These cells, at passage 1, are thawed and expanded in EBM-2 complete medium, until passage 2 or 3. The cells are trypsinized, washed in DMEM+10% FBS+antibiotics, and spun at 1000 rpm for 10 min. Prior to centrifugation of the cells, a small amount is collected for a cell count. After centrifugation, the medium is discarded, and the cells are resuspended in the appropriate volume of DMEM+10% FBS+antibiotics to achieve a concentration of 3×10^5 cells/mL. Another cell count is performed to confirm the cell concentration. The cells are diluted to 3×10^4 cells/mL in DMEM+10% FBS+antibiotics, and 100 μL of cells are added to a 96-well plate. The cells are incubated at 37° C. for 22 h.
Prior to the completion of the incubation period, compound dilutions are prepared. Five-point, five-fold serial dilutions are prepared in DMSO, at concentrations 400-fold greater than the final concentrations desired. 2.5 μL of each compound dilution are diluted further in a total of 1 mL DMEM+10% FBS+antibiotics (400× dilution). Medium containing 0.25% DMSO is also prepared for the 0 μM compound sample. At the 22 h time point, the medium is removed from the cells, and 100 μL of each compound dilution is added. The cells are incubated at 37° C. for 2-3 h.
During the compound pre-incubation period, the growth factors are diluted to the appropriate concentrations. Solutions of DMEM+10% FBS+antibiotics, containing either VEGF or bFGF at the following concentrations: 50, 10, 2, 0.4, 0.08, and 0 ng/mL are prepared. For the compound-treated cells, solutions of VEGF at 550 ng/mL or bFGF at 220 ng/mL for 50 ng/mL or 20 ng/mL final concentrations, respectively, are prepared since 10 μL of each will be added to the cells (110 μL final volume). At the appropriate time after adding the compounds, the growth factors are added. VEGF is added to one set of plates, while bFGF is added to another set of plates. For the growth factor control curves, the media on wells B4-G6 of plates 1 and 2 are replaced with media containing VEGF or bFGF at the varying concentrations (50-0 ng/mL). The cells are incubated at 37° C. for an additional 72 h.
At the completion of the 72 h incubation period, the medium is removed, and the cells are washed twice with PBS. After the second wash with PBS, the plates are tapped gently to remove excess PBS, and the cells are placed at −70° C. for at least 30 min. The cells are thawed and analyzed using the CyQuant fluorescent dye (Molecular Probes C-7026), following the manufacturer's recommendations. The plates are read on a Victor/Wallac 1420 workstation at 485 nm/530 nm (excitation/emission). Raw data are collected and analyzed using a 4-parameter fit equation in XLFit. IC50 values are then determined.

| Structure (SMILES) | IC50 [nM] |
| --- | --- |
| CC(C)Oc1ccc(NC(=O)c2cc(F)cnc2NCc2ccnc3[nH]ncc23)cc1 [Example 124, 5-Fluoro-N-(4-((1-methylethyl)oxy)phenyl)-2-((1H-pyrazolo[3,4-b]pyridin-4-ylmethyl)amino)-3-pyridinecarboxamide] | < 500 |
| Cc1ccc(NC(=O)c2cc(F)cnc2NCc2ccnc3[nH]ccc23)cc1F [Example 111, 5-fluoro-N-(3-fluoro-4-methylphenyl)-2-((1H-pyrrolo[2,3-b]pyridin-4-ylmethyl)amino)-3-pyridinecarboxamide] | < 500 |
| O=C(Nc1ccc(C(O)(C(F)(F)F)C(F)(F)F)cc1)c1cccnc1NCc1ccnc2[nH]ccc12 [Example 17, 2-[(1H-Pyrrolo[2,3-b]pyridin-4-ylmethyl)amino]-N-{4-[2,2,2-trifluoro-1-hydroxy-1-(trifluoromethyl)ethyl]phenyl}nicotinamide] | < 500 |
| CC1(C)CCNc2cc(NC(=O)c3cccnc3NCc3ncnc4[nH]ccc34)ccc21 [Example 131, N-(4,4-Dimethyl-1,2,3,4-tetrahydro-7-quinolinyl)-2-((7H-pyrrolo[2,3-d]pyrimidin-4-ylmethyl)amino)-3-pyridinecarboxamide] | < 500 |
| Cc1nc2cc(NC(=O)c3cc(F)cnc3NCc3ccnc4[nH]ccc34)ccc2s1 [Example 77, 5-fluoro-N-(2-methyl-1,3-benzothiazol-5-yl)-2-((1H-pyrrolo[2,3-b]pyridin-4-ylmethyl)amino)-3-pyridinecarboxamide] | < 500 |
| CC1(C)CNCc2cc(NC(=O)c3cccnc3NCc3ccnc4c3CCN4)ccc21 [Example 25, 2-[(2,3-Dihydro-1H-pyrrolo[2,3-b]pyridin-4-ylmethyl)amino]-N-(4,4-dimethyl-1,2,3,4-tetrahydroisoquinolin-7-yl)nicotinamide] | < 500 |
| CN1CCC(Cc2cc(NC(=O)c3cccnc3NCc3ccnc4[nH]ccc34)cc(C(F)(F)F)c2)CC1 [Example 58, N-[3-(1-Methyl-piperidin-4-ylmethyl)-5-trifluoromethyl-phenyl]-2-[(1H-pyrrolo[2,3-b]pyridin-4-ylmethyl)-amino]-nicotinamide] | < 500 |
| O=C(Nc1cc(CCCN2CCOCC2)cc(C(F)(F)F)c1)c1cccnc1NCc1ccnc2[nH]ccc12 [Example 60, N-(3-(3-(4-morpholinyl)propyl)-5-(trifluoromethyl)phenyl)-2-((1H-pyrrolo[2,3-b]pyridin-4-ylmethyl)amino)-3-pyridinecarboxamide] | < 500 |
| O=C(Nc1ccc(C(F)(F)C(F)(F)F)c(OCCN2CCCC2)c1)c1cccnc1NCc1ccnc2[nH]ccc12 [Example 63, N-[4-pentafluoroethyl-3-(2-pyrrolidin-1-yl-ethoxy)-phenyl]-2-[(1H-pyrrolo[2,3-b]pyridin-4-ylmethyl)-amino]-nicotinamide] | < 500 |
| COC(c1ccc(NC(=O)c2cccnc2NCc2ccnc3[nH]ccc23)cc1)(C(F)(F)F)C(F)(F)F [Example 44, 2-[(1H-Pyrrolo[2,3-b]pyridin-4-ylmethyl)-amino]-N-[4-(2,2,2-trifluoro-1-methoxy-1-trifluoromethyl-ethyl)-phenyl]-nicotinamide] | < 500 |
| CC1Sc2ccc(NC(=O)c3cc(F)cnc3NCc3ccnc4[nH]ccc34)cc2NC1=O (stereo not drawn) [Example 108, 5-fluoro-N-(2-methyl-3-oxo-3,4-dihydro-2H-1,4-benzothiazin-6-yl)-2-((1H-pyrrolo[2,3-b]pyridin-4-ylmethyl)amino)-3-pyridinecarboxamide] | < 500 |
| Cc1nc2cc(NC(=O)c3ccc(F)nc3NCc3ccnc4[nH]ccc34)ccc2s1 [Example 37, 2-((1H-Pyrrolo[2,3-b]pyridin-4-yl)methylamino)-6-fluoro-N-(2-methylbenzo[d]thiazol-5-yl)nicotinamide] | < 500 |
| CC1(C)CCNc2cc(NC(=O)c3cccnc3NCc3ccnc4[nH]ncc34)ccc21 [Example 71, N-(4,4-Dimethyl-1,2,3,4-tetrahydro-7-quinolinyl)-2-((1H-pyrazolo[3,4-b]pyridin-4-ylmethyl)amino)-3-pyridinecarboxamide] | < 500 |
| O=C(Nc1cccc(C(OC[C@@H]2CCCN2)(C(F)(F)F)C(F)(F)F)c1)c1cccnc1NCc1ccnc2[nH]ccc12 [Example 19, (S)-2-((1H-pyrrolo[2,3-b]pyridin-4-yl)methylamino)-N-(3-(1,1,1,3,3,3-hexafluoro-2-(pyrrolidin-2-ylmethoxy)propan-2-yl)phenyl)nicotinamide] | < 500 |
| O=C(Nc1ccc(Cl)cc1)c1cc(F)cnc1NCc1ccnc2[nH]ccc12 [Example 91, N-(4-chlorophenyl)-5-fluoro-2-((1H-pyrrolo[2,3-b]pyridin-4-ylmethyl)amino)-3-pyridinecarboxamide] | < 500 |
| CN(C)c1nc2cc(NC(=O)c3cc(F)cnc3NCc3ccnc4[nH]ccc34)ccc2s1 [Example 114, N-(2-(dimethylamino)-1,3-benzothiazol-5-yl)-5-fluoro-2-((1H-pyrrolo[2,3-b]pyridin-4-ylmethyl)amino)-3-pyridinecarboxamide] | < 500 |
| CC1(C)CNCc2cc(NC(=O)c3cccnc3NCc3ccnc4[nH]ccc34)cnc21 [Example 11] | < 500 |
| CC1(C)CN(C(=O)[C@@H]2CCN2)c2cc(NC(=O)c3cccnc3NCc3ccnc4[nH]ccc34)ccc21 [Example 23, N-{1-[(2S)-Azetidin-2-ylcarbonyl]-3,3-dimethyl-2,3-dihydro-1H-indol-6-yl}-2-[(1H-pyrrolo[2,3-b]pyridin-4-ylmethyl)amino]nicotinamide] | < 500 |
| CC(C)(C)c1ccc(NC(=O)c2cc(Cl)cnc2NCc2ccnc3[nH]ccc23)cc1 [Example 88, 5-chloro-N-(4-(1,1-dimethylethyl)phenyl)-2-((1H-pyrrolo[2,3-b]pyridin-4-ylmethyl)amino)-3-pyridinecarboxamide] | < 500 |
| CN1CCN(Cc2cc(NC(=O)c3cccnc3NCc3ccnc4[nH]ccc34)ccc2C(F)(F)C(F)(F)F)CC1 [Example 46, N-[3-(4-Methyl-piperazin-1-ylmethyl)-4-pentafluoroethyl-phenyl]-2-[(1H-pyrrolo[2,3-b]pyridin-4-ylmethyl)-amino]-nicotinamide] | < 500 |
| O=C(Nc1ccc(C(F)(F)F)c(Cl)c1)c1cc(F)cnc1NCc1ccnc2[nH]ccc12 [Example 100, N-(3-chloro-4-(trifluoromethyl)phenyl)-5-fluoro-2-((1H-pyrrolo[2,3-b]pyridin-4-ylmethyl)amino)-3-pyridinecarboxamide] | < 500 |
| O=C(Nc1ccc(C(F)(F)F)c(OCC2CCCO2)c1)c1cccnc1NCc1ccnc2[nH]ccc12 (stereo not drawn) [Example 57, 2-[(1H-Pyrrolo[2,3-b]pyridin-4-ylmethyl)-amino]-N-[3-(tetrahydro-furan-2-ylmethoxy)-4-trifluoromethyl-phenyl]-nicotinamide] | < 500 |
| Cc1ccc(NC(=O)c2cc(F)cnc2NCc2ccnc3[nH]ccc23)cc1Cl [Example 110, N-(3-chloro-4-methylphenyl)-5-fluoro-2-((1H-pyrrolo[2,3-b]pyridin-4-ylmethyl)amino)-3-pyridinecarboxamide] | < 500 |
| Cc1ccc(NC(=O)c2cc(F)cnc2NCc2ccnc3[nH]ccc23)cc1 [Example 109, 5-fluoro-N-(4-methylphenyl)-2-((1H-pyrrolo[2,3-b]pyridin-4-ylmethyl)amino)-3-pyridinecarboxamide] | < 500 |
